{"source": "patent US20170253601A1", "about": "“Substituted Pyrrolidine Compounds” (EPIZYME, INC., priority 2014, published 2017)"}
{"biological_target": "T1, SMYD2 (Homo sapiens, UniProt Q9NRG4)", "T1 construct": "Full length SMYD2 (NP 064582.2) was cloned; His6 (N, cleaved yes); FLAG (N); made in house; host or cells: Sf9 insect cells", "T1 sequence (Q9NRG4 whole entry)": "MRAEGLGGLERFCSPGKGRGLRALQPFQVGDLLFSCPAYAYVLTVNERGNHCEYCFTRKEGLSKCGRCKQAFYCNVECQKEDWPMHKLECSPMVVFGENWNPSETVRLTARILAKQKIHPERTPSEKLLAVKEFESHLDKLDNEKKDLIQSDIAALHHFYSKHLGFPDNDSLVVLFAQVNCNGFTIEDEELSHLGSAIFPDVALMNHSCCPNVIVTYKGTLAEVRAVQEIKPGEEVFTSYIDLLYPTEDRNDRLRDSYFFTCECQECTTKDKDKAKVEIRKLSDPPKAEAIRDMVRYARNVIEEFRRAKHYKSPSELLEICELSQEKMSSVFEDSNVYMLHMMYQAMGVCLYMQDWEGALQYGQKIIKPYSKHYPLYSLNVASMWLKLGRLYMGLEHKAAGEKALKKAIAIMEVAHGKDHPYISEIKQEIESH", "experiment": "SMYD2 Biochemical Assay (3H-SAM, biotinylated peptide substrate, Flashplate)", "settings": "IC50 values are an average of n = 1 to n = 50; read-out: SMYD2 Biochem IC50 (μM)*", "source_text": "(§1) S-adenosylmethionine (SAM), S-adenosylhomocysteine (SAH), bicine, Tween20, dimethylsulfoxide (DMSO), bovine skin gelatin (BSG), and Tris(2-carboxyethyl)phosphine hydrochloride (TCEP) were purchased from Sigma-Aldrich at the highest level of purity possible. ^3H-SAM was purchase from American Radiolabeled Chemicals with a specific activity of 80 Ci/mmol. 384-well streptavidin Flashplates were purchased from PerkinElmer.\n(§2) Peptide was synthesized with a N-terminal linker-affinity tag motif and a C-terminal amide cap by 21st Century Biochemicals. The peptide was high-performance liquid chromatography (HPLC) purified to greater than 95% purity and confirmed by liquid chromatography mass spectrometry (LC-MS). The sequence was […](K-Biot)-amide. (SEQ ID No: 3)\n(§3) Full length SMYD2 (NP 064582.2) was cloned into a pFastbac-Htb-lic vector with an N-terminal His6 tag and FLAG tag, preceded by a TEV protease cleavage site. The protein was expressed in Sf9 insect cells. Cells were resuspended in lysis buffer (25 mM HEPES-NaOH, pH 7.5, 200 mM NaCl, 5% glycerol, and 5 mM β-ME) and lysed by sonication. The protein was purified by Ni-NTA (Qiagen), followed by TEV cleavage to remove the His6 tag, subtractive Ni-NTA (Qiagen), and gel filtration chromatography using an […] (GE Healthcare). Purified protein was stored in 20 mM Tris-HCl, pH 8.0, 100 mM NaCl, and 1 mM TCEP.\n(§4) The assays were all performed in a buffer consisting of 20 mM Bicine (pH=7.6), 1 mM TCEP, 0.005% Bovine Skin Gelatin, and 0.002% Tween20, prepared on the day of use. Compounds in 100% DMSO (1 ul) were spotted into a polypropylene 384-well V-bottom plates (Greiner) using a Platemate Plus outfitted with a 384-channel head (Thermo Scientific). DMSO (1 ul) was added to Columns 11, 12, 23, 24, rows A-H for the maximum signal control and 1 ul of SAH, a known product and inhibitor of SMYD2, was added to columns 11, 12, 23, 24, rows I-P for the minimum signal control. A cocktail (40 ul) containing the SMYD2 enzyme was added by Multidrop Combi (Thermo-Fisher). The compounds were allowed to incubate with SMYD2 for 30 min at room temperature, then a cocktail (10 ul) containing ^3H-SAM and peptide was added to initiate the reaction (final volume=51 ul). The final concentrations of the components were as follows: SMYD2 was 1.5 nM, ^3H-SAM was 10 nM, and peptide was 60 nM, SAH in the minimum signal control wells was 1000 uM, and the DMSO concentration was 2%. The assays were stopped by the addition of non-radioactive SAM (10 ul) to a final concentration of 600 uM, which dilutes the ^3H-SAM to a level where its incorporation into the peptide substrate is no longer detectable. 50 ul of the reaction in the 384-well polypropylene plate was then transferred to a 384-well Flashplate and the biotinylated peptides were allowed to bind to the streptavidin surface for at least 1 hour before being washed three times with 0.1% Tween20 in a Biotek ELx405 plate washer. The plates were then read in a PerkinElmer TopCount plate reader to measure the quantity of ^3H-labeled peptide bound to the Flashplate surface, measured as disintegrations per minute (dpm) or alternatively, referred to as counts per minute (cpm).\n(§5) Where dpm=disintegrations per minute, cmpd=signal in assay well, and min and max are the respective minimum and maximum signal controls.\n(§6) Where top and bottom are the normally allowed to float, but may be fixed at 100 or 0 respectively in a 3-parameter fit. The Hill Coefficient normally allowed to float but may also be fixed at 1 in a 3-parameter fit. I is the compound concentration.\n(§7) SMYD2 biochemical assay data for representative Compounds of the Disclosure are presented in Tables 1-3 in the column titled “SMYD2 Biochem IC50 (μM).”", "units": {"IC50": "µM"}}
{"smiles": "C[C@H]1CN(Cc2ccccc2)C[C@H]1NC(=O)c1cc(C2CC2)on1", "note": "(racemic) [compound 116, (±)-cis-N-([1-benzyl-4-methylpyrrolidin-3-yl)-5-cyclopropyl-1,2-oxazole-3-carboxamide]", "IC50": 4.2}
{"smiles": "C[C@@H]1CN(Cc2ccccc2)C[C@H]1NC(=O)c1cc(C2CC2)on1", "note": "(racemic) [compound 117, (±)-trans-N-(1-benzyl-4-methylpyrrolidin-3-yl)-5-cyclopropyl-1,2-oxazole-3-carboxamide]", "IC50": "> 50"}
{"smiles": "C[C@H]1CN(Cc2cccnc2)C[C@H]1NC(=O)c1cc(C2CC2)on1", "note": "(racemic) [compound 120, (±)-cis-5-cyclopropyl-N-[4-methyl-1-(pyridin-3-ylmethyl)pyrrolidin-3-yl]-1,2-oxazole-3-carboxamide]", "IC50": 10.6}
{"smiles": "C[C@H]1CN(Cc2ccccn2)C[C@H]1NC(=O)c1cc(C2CC2)on1", "note": "(racemic) [compound 121, (±)-cis-5-cyclopropyl-N-[4-methyl-1-(pyridin-2-ylmethyl)pyrrolidin-3-yl]-1,2-oxazole-3-carboxamide]", "IC50": 15.7}
{"smiles": "CO[C@H]1CN(C)C[C@@H]1NC(=O)c1cc(C2CC2)on1", "note": "(racemic) [compound 122, (±)-trans-5-cyclopropyl-N-(4-methoxy-1-methylpyrrolidin-3-yl)-1,2-oxazole-3-carboxamide]", "IC50": "> 50"}
{"smiles": "CO[C@H]1CN(C)C[C@H]1NC(=O)c1cc(C2CC2)on1", "note": "(racemic) [compound 123, (±)-cis-5-cyclopropyl-N-(4-methoxy-1-methylpyrrolidin-3-yl)-1,2-oxazole-3-carboxamide]", "IC50": 49.8}
{"smiles": "C[C@@H]1CN(Cc2cccnc2)C[C@H]1NC(=O)c1cc(C2CC2)on1", "note": "(racemic) [compound 124, (±)-trans-5-cyclopropyl-N-[4-methyl-1-(pyridin-3-ylmethyl)pyrrolidin-3-yl]-1,2-oxazole-3-carboxamide]", "IC50": "> 50"}
{"smiles": "C[C@@H]1CN(Cc2ccccn2)C[C@H]1NC(=O)c1cc(C2CC2)on1", "note": "(racemic) [compound 125, (±)-trans-5-cyclopropyl-N-[4-methyl-1-(pyridin-2-ylmethyl)pyrrolidin-3-yl]-1,2-oxazole-3-carboxamide]", "IC50": "> 50"}
{"smiles": "C[C@@H]1CN(CC2CC2)C[C@H]1NC(=O)c1cc(C2CC2)on1", "note": "(racemic) [compound 126, (±)-trans-5-cyclopropyl-N-[1-(cyclopropyl-methyl)-4-methyl-pyrrolidin-3-yl]-1,2-oxazole-3-carboxamide]", "IC50": "> 50"}
{"smiles": "C[C@@H]1CN(CC2CCCOC2)C[C@H]1NC(=O)c1cc(C2CC2)on1", "note": "(mixture of isomers) [compound 127, (±)-trans-5-cyclopropyl-N-[4-methyl-1-(oxan-3-ylmethyl)pyrrolidin-3-yl]-1,2-oxazole-3-carboxamide]", "IC50": "> 50"}
{"smiles": "C[C@@H]1CN(CC(C)(C)C)C[C@H]1NC(=O)c1cc(C2CC2)on1", "note": "(racemic) [compound 130, (±)-trans-5-cyclopropyl-N-[(3S,4R)-1-(2,2-dimethylpropyl)-4-methylpyrrolidin-3-yl]-1,2-oxazole-3-carboxamide]", "IC50": "> 50"}
{"smiles": "CCc1nc(C)c(CN2C[C@@H](C)[C@H](NC(=O)c3cc(C4CC4)on3)C2)[nH]1", "note": "(racemic) [compound 131, (±)-trans-5-cyclopropyl-N-[1-[(2-ethyl-4-methyl-1H-imidazol-5-yl)methyl]-4-methyl-pyrrolidin-3-yl]-1,2-oxazole-3-carboxamide]", "IC50": "> 50"}
{"smiles": "C[C@@H]1CN(CCC2CCN(C(=O)OC(C)(C)C)CC2)C[C@H]1NC(=O)c1cc(C2CC2)on1", "note": "(racemic) [compound 132]", "IC50": "> 50"}
{"smiles": "C[C@@H]1CN(CCC2CCNCC2)C[C@H]1NC(=O)c1cc(C2CC2)on1", "note": "(racemic) [compound 133, (±)-trans-5-cyclopropyl-N-[4-methyl-1-[2-(piperidin-4-yl)ethyl]pyrrolidin-3-yl]-1,2-oxazole-3-carboxamide]", "IC50": "> 50"}
{"smiles": "COc1ccc(CN2C[C@@H](C)[C@H](NC(=O)c3cc(C4CC4)on3)C2)c(OC)c1", "note": "(racemic) [compound 134, (±)-trans--cyclopropyl-N-[1-[(2,4-dimethoxy-phenyl)methyl]-4-methylpyrrolidin-3-yl]-1,2-oxazole-3-carboxamide]", "IC50": "> 50"}
{"smiles": "C[C@@H]1CN(Cc2cccc3c2OCO3)C[C@H]1NC(=O)c1cc(C2CC2)on1", "note": "(racemic) [compound 135, (±)-trans-N-[1-(2H-1,3-benzodioxol-4-ylmethyl)-4-methyl-pyrrolidin-3-yl]-5-cyclopropyl-1,2-oxazole-3-carboxamide]", "IC50": "> 50"}
{"smiles": "C[C@@H]1CN(Cc2ccc(Cl)cc2Cl)C[C@H]1NC(=O)c1cc(C2CC2)on1", "note": "(racemic) [compound 136, (±)-trans-5-cyclopropyl-N-[1-[(2,4-dichloro-phenyl)methyl]-4-methylpyrrolidin-3-yl]-1,2-oxazole-3-carboxamide]", "IC50": "> 50"}
{"smiles": "C[C@@H]1CN(CC2CCOC2)C[C@H]1NC(=O)c1cc(C2CC2)on1", "note": "(mixture of isomers) [compound 137, (±)-trans-5-cyclopropyl-N-[4-methyl-1-(oxolan-3-ylmethyl)pyrrolidin-3-yl]-1,2-oxazole-3-carboxamide]", "IC50": "> 50"}
{"smiles": "CC(C)N1C[C@H](NC(=O)c2cc(C3CC3)on2)[C@@H](C2CC2)C1", "note": "(racemic) [compound 138, (±)-trans-5-cyclopropyl-N-[4-cyclopropyl-1-(propan-2-yl)pyrrolidin-3-yl]-1,2-oxazole-3-carboxamide]", "IC50": 48.1}
{"smiles": "C[C@@H]1CN(Cc2ncc[nH]2)C[C@H]1NC(=O)c1cc(C2CC2)on1", "note": "(racemic) [compound 139, (±)-trans-5-cyclopropyl-N-[1-(1H-imidazol-2-ylmethyl)-4-methylpyrrolidin-3-yl]-1,2-oxazole-3-carboxamide]", "IC50": "> 50"}
{"smiles": "C[C@@H]1CN(Cc2ccc(Cl)cc2)C[C@H]1NC(=O)c1cc(C2CC2)on1", "note": "(racemic) [compound 140, (±)-trans-N-{1-[(4-chlorophenyl)methyl]-4-methylpyrrolidin-3-yl]-5-cyclopropyl-1,2-oxazole-3-carboxamide]", "IC50": "> 50"}
{"biological_target": "T1, SMYD2", "experiment": "SMYD2 Biochemical Assay (3H-SAM, biotinylated peptide substrate, Flashplate)", "settings": "Table 1; average of n = 1 to n = 50; read-out: SMYD2 Biochem IC50", "source_text": "as §1, §2, §3, §4, §5, §6, §7", "units": {"IC50": "µM"}}
{"smiles": "CCc1cc(C(=O)N[C@@H]2CN(C3CC3)C[C@@H]2C)no1", "note": "(racemic) [compound 112, (±)-cis-N-(1-cyclopropyl-4-methylpyrrolidin-3-yl)-5-ethyl-isoxazole-3-carboxamide]", "IC50": 9.4}
{"biological_target": "T1, SMYD2", "experiment": "SMYD2 Biochemical Assay (3H-SAM, biotinylated peptide substrate, Flashplate)", "settings": "Table 2; average of n = 1 to n = 50; read-out: SMYD2 Biochem IC50", "source_text": "as §1, §2, §3, §4, §5, §6, §7", "units": {"IC50": "µM"}}
{"smiles": "C[C@H]1CN(Cc2ccncc2)C[C@H]1NC(=O)c1cc(C2CC2)on1", "note": "(racemic) [compound 108, (±)-cis-5-cyclopropyl-N-(4-methyl-1-(pyridin-4-ylmethyl)pyrrolidin-3-yl)isoxazole-3-carboxamide]", "IC50": 22.6}
{"smiles": "C[C@H]1CN(Cc2ccccn2)C[C@H]1NC(=O)c1cc(C2CC2)on1", "note": "(racemic) [compound 109, (±)-cis-5-cyclopropyl-N-(4-methyl-1-(pyridin-2-ylmethyl)pyrrolidin-3-yl)isoxazole-3-carboxamide]", "IC50": 31.8}
{"smiles": "CCN1C[C@H](C)[C@H](NC(=O)c2cc(C3CC3)on2)C1", "note": "(racemic) [compound 110, (±)-cis-5-cyclopropyl-N-(1-ethyl-4-methylpyrrolidin-3-yl)isoxazole-3-carboxamide]", "IC50": 3}
{"smiles": "CC(=O)N1C[C@H](C)[C@H](NC(=O)c2cc(C3CC3)on2)C1", "note": "(racemic) [compound 111, (±)-cis-N-(1-acetyl-4-methylpyrrolidin-3-yl)-5-cyclopropylisoxazole-3-carboxamide]", "IC50": "> 50"}
